In patent publication US12246010B2, “Formulations of tegavivint and related compounds” (Iterion Therapeutics, Inc., priority 2018, dated 2025):
Values joined by “and” are separate entries in the source; they are usually repeats but may differ in a detail not shown here. Identical values can stand only once.

Tested on: bleomycin-induced idiopathic pulmonary fibrosis (IPF)
Test: Bleomycin-induced IPF mouse model: body weight
Format: in vivo, C57BL/6 male mice
Protocol: The purpose of this experiment was to investigate tegavivint nanosuspension in a mouse model of bleomycin-induced idiopathic pulmonary fibrosis (IPF). Test articles were as follows:
Tegavivint (BC2059) in a nano-milled suspension 25 mg/mL in 0.625% poloxamer 188 and 10% sorbitol. The test article was refrigerated at about 4° C.
Nebulizing equipment was Altera ultrasonic eRapid machine nebulizer (model #678G1002).
Animals were 8-12 week old C57BL/6 male mice (Jackson Lab, Bar Harbor, ME).
Murine model of pulmonary fibrosis was induced by intratracheally (IT) injected bleomycin (APP Pharmaceuticals, Schaumburg, IL). One dose of 0.025 U bleomycin dissolved in 50 microliters of Saline 0.9%, or PBS as control was administered to each animal on day 0.
Tegavivint nanosuspension was applied to Group 3 in the form of aerosols, through the method of whole body exposure. The mice were placed inside a plastic box. This box was sealed and connected by one of its sides to the outlet of the nebulizer device, and on the other side to a system of closed water. The whole procedure was carried out inside the fume hood of the animal room. In each treatment session, 5 ml of 25 mg/ml Tegavivint (125 mg) was nebulized over 15 min to each group of 4-5 mice in the chamber. […]
The body weight of animals was recorded on Days 0, 5, 8, 12, 16, 19, and 21.

With C[C@@H]1C[C@H](C)CN(S(=O)(=O)c2ccc3c(c2)C(=NO)c2cc(S(=O)(=O)N4C[C@H](C)C[C@H](C)C4)ccc2C3=NO)C1 [BC2059, tegavivint] the “effect on body weight loss caused by bleomycin” value (Group 3, inhaled) was “reversed the body weight loss” and the “Change in body weight (%)” value (Group 3: IT bleomycin Day 0, 5 ml of 25 mg/ml tegavivint aerosol BID Day 5-21, individual animals) was −2.83% and 5.2% and 7.3% (2×) and 7.9%.
